Reference: PMC9495972, “Dissecting the Activity of Catechins as Incomplete Aldose Reductase Differential Inhibitors through Kinetic and Computational Approaches” (Biology, 2022)
Entries after “also recorded” stand apart in the source; their conditions may differ. One block for each compound: values may come before it.

Legend:
[1] = molecular target: T1, human recombinant AKR1B1 (Homo sapiens, UniProt P15121); assay: AKR1B1 activity inhibition, decrease in absorbance at 340 nm linked to NADPH oxidation; assay type: biochemical; details: for remaining activity at 800 µM: in the presence of 0.8 mM compound, read-out: residual activity; for IC50: 10 mU AKR1B1, 37 °C, pH 6.8, 95% CLs in text
T1 construct: made in house
Method: (§1) The AKR1B1 activity was determined at 37 °C, as previously described, monitoring the decrease in absorbance at 340 nm linked to NADPH oxidation (ε340 = 6.22 mM^−1·cm^−1) using a Biochrom Libra S60 spectrophotometer. The standard assay mixture (0.7 mL) contained 0.25 M sodium phosphate buffer pH 6.8, 0.18 mM NADPH, 0.4 M ammonium sulfate, 0.5 mM EDTA, and 4.7 mM GAL. One unit of enzyme activity is the amount of enzyme that catalyzes the conversion of 1 µmol of substrate/min in the above assay conditions.
IC50 values were determined by non-linear regression analysis using GraphPad Prism version 7.04 (GraphPad Software, San Diego, CA, USA). Values were obtained from at least six different inhibitors concentrations (each assayed at least in triplicate) and are reported with their 95% Confidence Limits (CLs). […] The final concentration of ethanol in the assay was never higher than 1%. […] The percentage of inhibition was calculated referring to an assay performed using the same solvent concentration in the absence of inhibitors.
(§2) The human recombinant AKR1B1 was expressed and purified to electrophoretic homogeneity, as previously described. […] The purified enzyme was stored at −80 °C in a 10 mM sodium phosphate buffer pH 7.0 containing 2 mM DTT and 30% (w/v) glycerol. Before use, AKR1B1 was extensively dialyzed against 10 mM sodium phosphate buffer pH 7.0.

[2] = molecular target: T1, human recombinant AKR1B1; assay: Inhibition kinetic analysis of AKR1B1-dependent reduction of L-idose, HNE and GSHNE; assay type: biochemical; details: for k+4: kinetic constant of ternary complex EIS to products; for Km: in the absence of inhibitors, read-out: KM of the substrate; for Km / kcat (k+2) of the substrate: at least 20 independent experiments; for kcat (k+2) of the substrate: in the absence of the inhibitor
Method: as §1, §2
The kinetic parameters ^appkcat and ^appKM were evaluated by non-linear regression analysis of rate measurements vs. substrate concentration according to Michaelis-Menten equation. The analysis was performed through GraphPad Prism 7.04 software by a non-linear “Robust Regression” analysis in which each point is individually weighted through iterative weighing of the smallest squares. The same approach was adopted to analyze the dependence of ^appkcat, ^appKM, and ^appKM/^appkcat from the concentration of the inhibitors [I], making use of previously derived equations [27] (see text).
The hyperbolic kinetic equation for an incomplete mixed type of inhibition analyzed with both branches of product formation at the steady state and with the inhibitor binding at equilibrium, was defined using the apparent kinetic parameters ^appKM and ^appkcat (Equations (1)–(3), see ref [27] for further details). (1) kappcat=Ki*k+2+k+4[I]/Ki*+[I] (2) appKM=KMKi*+(Ki*/KiKM+k+4/k+1)[I]+k+4/Kik+1[I]^2/Ki*+[I] (3) appKM/appkcat= KMKi*+(Ki*/KiKM+k+4/k+1)[I]+k+4/Kik+1[I]^2/Ki*k+2+k+4[I]
Thus, ^appkcat and ^appKM values emerging from non-linear regression analysis of primary data (Figure 3) were analyzed through non-linear regression using Equations (1) and (2), respectively. […] The above starting values of kcat and KM derived from at least 20 independent experiments in which kinetic parameters were measured in the absence of inhibitors. […] The k+4 values are reported in Table 1 as the average of values emerging from ^appKM/^appkcat versus [I] (Equation (3) or Equation (4)) and 1/^appkcat versus [I] (Equation (1)) plots.

[3] = test system: AKR1B1; details: cited from earlier work
[4] = test system: human AKR1B1; set-up: method as in PMID 32640594; details: in the absence of GCG; cited from earlier work
[5] = test system: human AKR1B1; assay: Docking, MD simulations and MM-PBSA binding free energy evaluations
Method: The X-ray structure of human AKR1B1 in complex with D-glyceraldehyde and the NADP cofactor (PDB code 3V36), as well as the co-crystal structure of human AKR1B1 in complex with a nitrofuryl-oxadiazol inhibitor (PDB code 2IKH), were downloaded from the Protein Data Bank. Molecular docking calculations were performed with GOLD 5.1 (CCDC Software Ltd., Cambridge, UK) with the Piecewise Linear Potential (PLP) fitness function; both the two X-ray structures and the previously predicted protein–substrate complexes (i.e., AKR1B1-L-idose, AKR1B1-HNE, and AKR1B1-GSHNE) were employed as the protein. […] When protein–substrate complexes were used as the receptor, the ten top-scored clusters of solutions in which the ligand formed at least one H-bond with the substrate were selected as the best clusters of solutions, which were considered for further analyses.
Molecular dynamics (MD) simulations were performed with AMBER 20 [32] using the ff14SB force field. General Amber force field (GAFF) parameters were used for the ligands, the substrates, and the cofactor, whose partial charges were calculated with the AM1-BCC method as implemented in the Antechamber suite of AMBER 20 (University of California, San Francisco, CA, USA). […] Each analyzed complex was placed in a rectangular parallelepiped water box, using the TIP3P explicit solvent model for water, and solvated with a 15 Å water cap. […]

[6] = GSHNE reduction, calculated using k+2 109 ± 8 min^−1
[7] = HNE reduction, calculated using k+2 78 ± 4 min^−1
[8] = L-idose reduction, calculated using k+2 195 ± 6 min^−1

remaining activity at 800 µM [1]: ~70%
Compound: Oc1cc(O)c2c(c1)O[C@H](c1ccc(O)c(O)c1)[C@H](O)C2 [EC, epicatechin]

Compound: O=C(O[C@@H]1Cc2c(O)cc(O)cc2O[C@@H]1c1ccc(O)c(O)c1)c1cc(O)c(O)c(O)c1 [ECG, epicatechin gallate]
IC50 ([1]; IC50 for GSHNE reduction, […] GSHNE as substrate): 143 µM
IC50 ([1]; IC50 for HNE reduction, 0.03 mM HNE as substrate): 257 µM
IC50 ([1]; IC50 for the reduction of L-idose, 8 mM L-idose as substrate): 67 µM
Ki/Ki* ([2]; GSHNE reduction): approximately 2
inhibition type ([2]; GSHNE reduction): mixed inhibition type
k+4/k+2 (%) [2, 6]: 14.3 ± 3.9%
k+4 ([2]; GSHNE reduction): 15.6 ± 4.3 min⁻¹
k+4/k+2 (%) [2, 7]: 8.6 ± 0.4%
k+4 ([2]; HNE reduction): 6.7 ± 2.7 min⁻¹
Ki ([2]; Ki*, GSHNE reduction, apparent dissociation constant of ternary complex EIS): 46 ± 11 µM
Ki ([2]; Ki*, HNE reduction, apparent dissociation constant of ternary complex EIS): 54 ± 9 µM
Ki ([2]; Ki*, L-idose reduction, apparent dissociation constant of ternary complex EIS): 46 ± 5 µM
Ki ([2]; Ki, GSHNE reduction, dissociation constant of enzyme-inhibitor complex): 91 ± 10 µM
Ki ([2]; Ki, HNE reduction, dissociation constant of enzyme-inhibitor complex): > 10000 µM
Ki ([2]; Ki, L-idose reduction, dissociation constant of enzyme-inhibitor complex): 116 ± 8 µM
inhibition type ([2]; L-idose reduction): mixed inhibition type
k+4/k+2 (%) [2, 8]: 2.7 ± 1.7%
k+4 ([2]; L-idose reduction): 5.2 ± 3.2 min⁻¹

Compound: Oc1cc(O)c2c(c1)O[C@H](c1cc(O)c(O)c(O)c1)[C@H](O)C2 [EGC, epigallocatechin]
inhibitory action on AKR1B1 (in words) [3]: inhibits AKR1B1 irrespective of the used substrate

Compound: O=C(O[C@@H]1Cc2c(O)cc(O)cc2O[C@@H]1c1cc(O)c(O)c(O)c1)c1cc(O)c(O)c(O)c1 [EGCG, epigallocatechin gallate]
inhibitory action on AKR1B1 (in words) [3]: preserved only HNE reduction; also recorded: act as ARDIs, even though not complete

Compound: O=C(O)c1cc(O)c(O)c(O)c1 [GA, gallic acid]
inhibitory action on AKR1B1 (in words) [3]: act as ARDIs, even though not complete

Compound: Oc1cc(O)c2c(c1)O[C@H](c1cc(O)c(O)c(O)c1)[C@@H](O)C2 [GC, gallocatechin]
remaining activity at 800 µM [1]: ~70%

inhibition type ([2]; GSHNE reduction): uncompetitive inhibition
k+4 ([2]; GSHNE reduction): 6.0 ± 1.0 min⁻¹
k+4/k+2 (%) [2, 7]: 12.2 ± 1.1%
k+4 ([2]; HNE reduction): 9.5 ± 0.9 min⁻¹
inhibition type ([2]; L-idose reduction): mixed inhibition type
k+4/k+2 (%) [2, 8]: 2.9 ± 0.25%
k+4 ([2]; L-idose reduction): 5.6 ± 0.5 min⁻¹
Compound: O=C(O[C@@H]1Cc2c(O)cc(O)cc2O[C@H]1c1cc(O)c(O)c(O)c1)c1cc(O)c(O)c(O)c1 [GCG, gallocatechin gallate]

Km [2]: 120 ± 16 µM
kcat (k+2) of the substrate [2]: 109 ± 8 min⁻¹
Compound: CCCCCC(O)C(CC=O)SC[C@H](NC(=O)CC[C@H](N)C(=O)O)C(=O)NCC(=O)O (some centres unmarked) [GSHNE, 3-glutathionyl-4-hydroxynonanal adduct]
binding affinity estimated for the substrate bound to AKR1B1 [4]: -30.3 kcal/mol

Km [2]: 51 ± 5 µM
kcat (k+2) of the substrate [2]: 78 ± 4 min⁻¹
Compound: CCCCCC(O)/C=C/C=O (centres unmarked) [HNE, 4-hydroxynonenal]
binding affinity estimated for the substrate bound to AKR1B1 [4]: -18.6 kcal/mol

Compound: O=C[C@H](O)[C@@H](O)[C@H](O)[C@@H](O)CO [L-idose]
Km [2]: 4260 ± 300 µM
kcat (k+2) of the substrate [2]: 195 ± 6 min⁻¹
increase in the binding affinity of the substrate for the complex ([5]; due to the presence of GCG): 32%
lowering of substrate binding free energy with GCG versus without ([5]; presence versus absence of GCG): 5.5 kcal/mol
binding affinity estimated for the substrate bound to AKR1B1 [4]: -17.4 kcal/mol

Compound: C[C@@H]1O[C@@H](O[C@H]2[C@H](O[C@H]3[C@H](O[C@H]4CC[C@@]5(C)[C@@H](CC[C@]6(C)[C@@H]5CC=C5[C@@H]7CC(C)(C)C[C@@H](O)[C@]7(C)CC[C@]56C)[C@@]4(C)CO)O[C@H](C(=O)O)[C@@H](O)[C@@H]3O)O[C@H](CO)[C@H](O)[C@@H]2O)[C@H](O)[C@H](O)[C@H]1O [soyasaponin Bb]
inhibitory action on AKR1B1 (in words) [3]: acting as ARDI

Compound: catechin gallate [CG]
inhibition type ([2]; GSHNE reduction): uncompetitive inhibition
k+4/k+2 (%) [2, 6]: 3.8 ± 0.8%
k+4 ([2]; GSHNE reduction): 4.1 ± 0.8 min⁻¹
k+4/k+2 (%) [2, 7]: approximately 6%
k+4 ([2]; HNE reduction): 4.7 ± 0.7 min⁻¹
inhibition type ([2]; L-idose reduction): mixed inhibition type
k+4/k+2 (%) [2, 8]: 0.7 ± 0.3%
k+4 ([2]; L-idose reduction): 1.4 ± 0.6 min⁻¹
